In patent US20060100245A1, “Substituted biphenyl-4-carboxylic acid arylamide analogues” (Neurogen Corporation, priority 2002, published 2006):

Target: T1, human capsaicin receptor (VR1) (Homo sapiens, UniProt Q8NER1)
T1 construct: transfected with the pBK-CMV expression construct encoding the full length human capsaicin receptor; expressed in transfected cells
Assay: Capsaicin receptor binding assay ([3H]RTX competition)
Conditions: read-out: Ki
Excerpt: This Example illustrates the preparation of VR1-transfected cells and membrane preparations for use in binding assays (Example 5) and functional assays (Example 6).
A cDNA encoding full length human capsaicin receptor (SEQ ID NO: 1, 2 or 3 of U.S. Pat. No. 6,482,611) was subcloned in the plasmid pBK-CMV (Stratagene, La Jolla, Calif.) for recombinant expression in mammalian cells.
Human embryonic kidney (HEK293) cells were transfected with the pBK-CMV expression construct encoding the full length human capsaicin receptor using standard methods. The transfected cells were selected for two weeks in media containing G418 ([…]) to obtain a pool of stably transfected cells. Independent clones were isolated from this pool by limiting dilution to obtain clonal stable cell lines for use in subsequent experiments.
For radioligand binding experiments, cells were seeded in T175 cell culture flasks in media without antibiotics and grown to approximately 90% confluency. The flasks were then washed with PBS and harvested in PBS containing 5 mM EDTA. The cells were pelleted by gentle centrifugation and stored at −80° C. until assayed.
Previously frozen cells were disrupted with the aid of a tissue homogenizer in ice-cold HEPES homogenization buffer (5mM KCl 5, 5.8 mM NaCl, 0.75 mM CaCl2, 2 mM MgCl2, 320 mM sucrose, and 10 mM HEPES pH 7.4). Tissue homogenates were first centrifuged for 10 minutes at 1000×g (4° C.) to remove the nuclear fraction and debris, and then the supernatant from the first centrifugation is further centrifuged for 30 minutes at 35,000×g (4° C.) to obtain a partially purified membrane fraction. Membranes were resuspended in the HEPES homogenization buffer prior to the assay. An aliquot of this membrane homogenate is used to determine protein concentration via the Bradford method (BIO-RAD Protein Assay Kit, #500-0001, BIO-RAD, Hercules, Calif.).
This Example illustrates a representative assay of capsaicin receptor binding that may be used to determine the binding affinity of compounds for the capsaicin (VR1) receptor.
Binding studies with [^3H] Resiniferatoxin (RTX) are carried out essentially as described by Szallasi and Blumberg (1992) J. Pharmacol. Exp. Ter. 262: 883-888. In this protocol, non-specific RTX binding is reduced by adding bovine alpha, acid glycoprotein (100 μg per tube) after the binding reaction has been terminated.
[^3H] RTX (37 Ci/mmol) is synthesized by and obtained from the Chemical Synthesis and Analysis Laboratory, National Cancer Institute-Frederick Cancer Research and Development Center, Frederick, Md. [^3H] RTX may also be obtained from commercial vendors (e.g., Amersham Pharmacia Biotech, Inc.; Piscataway, N.J.).
The membrane homogenate of Example 4 is centrifuged as before and resuspended to a protein concentration of 333 μg/ml in homogenization buffer. Binding assay mixtures are set up on ice and contain [^3H]JRTX (specific activity 2200 mCi/ml), 2 μl non-radioactive test compound, 0.25 mg/ml bovine serum albumin (Cohn fraction V), and 5×10^4−1×10^5 VR1-transfected cells. The final volume is adjusted to 500 μl (for competition binding assays) or 1,000 μl (for saturation binding assays) with the ice-cold HEPES homogenization buffer solution (pH 7.4) described above. Non-specific binding is defined as that occurring in the presence of 1 μM non-radioactive RTX (Alexis Corp.; San Diego, Calif.). For saturation binding, [^3H]RTX is added in the concentration range of […], using 1 to 2 dilutions. Typically 11 concentration points are collected per saturation binding curve.
Competition binding assays are performed in the presence of 60 pM [^3H]RTX and various concentrations of test compound. The binding reactions are initiated by transferring the assay mixtures into a 37° C. water bath and are terminated following a 60 minute incubation period by cooling the tubes on ice.

T1 sequence (Q8NER1 whole entry): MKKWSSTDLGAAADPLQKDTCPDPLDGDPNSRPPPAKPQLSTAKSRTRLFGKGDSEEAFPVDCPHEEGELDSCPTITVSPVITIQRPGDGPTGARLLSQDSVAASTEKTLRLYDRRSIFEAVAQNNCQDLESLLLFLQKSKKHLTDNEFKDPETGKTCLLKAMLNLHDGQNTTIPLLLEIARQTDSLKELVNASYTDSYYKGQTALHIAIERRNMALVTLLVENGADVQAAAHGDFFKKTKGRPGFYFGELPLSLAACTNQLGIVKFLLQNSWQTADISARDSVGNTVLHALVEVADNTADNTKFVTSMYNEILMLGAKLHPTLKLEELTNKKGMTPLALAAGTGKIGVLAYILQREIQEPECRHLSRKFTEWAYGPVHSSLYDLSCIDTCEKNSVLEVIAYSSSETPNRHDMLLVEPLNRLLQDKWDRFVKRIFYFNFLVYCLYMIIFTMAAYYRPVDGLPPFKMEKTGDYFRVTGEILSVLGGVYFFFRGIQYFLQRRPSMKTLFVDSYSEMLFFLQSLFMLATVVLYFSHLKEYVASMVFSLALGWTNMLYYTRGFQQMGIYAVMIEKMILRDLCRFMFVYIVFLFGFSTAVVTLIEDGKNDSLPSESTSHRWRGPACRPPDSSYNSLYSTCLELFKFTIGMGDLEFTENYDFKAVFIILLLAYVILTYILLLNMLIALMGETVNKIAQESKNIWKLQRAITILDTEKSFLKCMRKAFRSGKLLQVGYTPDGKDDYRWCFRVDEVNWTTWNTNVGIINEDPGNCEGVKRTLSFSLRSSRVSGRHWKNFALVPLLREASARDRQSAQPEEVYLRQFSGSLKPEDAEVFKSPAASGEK

| SMILES | Ki |
| --- | --- |
| CC(C)c1ccc(NC(=O)c2ccc(-c3ncccc3Cl)cc2)cc1 [Compound 27, 4-(3-Chloro-pyridin-2-yl)-N-(4-isopropyl-phenyl)-benzamide] | < 1 µM |
| O=C(Nc1ccc(C(F)(F)F)cn1)c1ccc(-c2ncccc2Cl)cc1 [Compound 28, 4-(3-Chloro-pyridin-2-yl)-N-(5-trifluoromethyl-pyridin-2-yl)-benzamide] | < 1 µM |
| CC(C)(O)c1ccc(NC(=O)c2ccc(-c3ncccc3Cl)cc2)cc1 [Compound 29, 4-(3-Chloro-pyridin-2-yl)-N-[4-(1-hydroxy-1-methyl-ethyl)-phenyl]-benzamide] | < 1 µM |
| CC(c1ccc(NC(=O)c2ccc(-c3ncccc3Cl)cc2)cc1)C(F)(F)F (stereo not shown) [Compound 30, 4-(3-Chloro-pyridin-2-yl)-N-[4-(2,2,2-trifluoro-1-methyl-ethyl)-phenyl]-benzamide] | < 1 µM |
| COCC(C)(C)c1ccc(NC(=O)c2ccc(-c3ncccc3Cl)cc2)cc1 [Compound 31, 4-(3-Chloro-pyridin-2-yl)-N-[4-(2-methoxy-1,1-dimethyl-ethyl)-phenyl]-benzamide] | < 1 µM |
| CC(C)(C#N)c1ccc(NC(=O)c2ccc(-c3ncccc3Cl)cc2)cc1 [Compound 32, 4-(3-Chloro-pyridin-2-yl)-N-[4-(cyano-dimethyl-methyl)-phenyl]-benzamide] | < 1 µM |
| Cc1cc(NC(=O)c2ccc(-c3ncccc3F)cc2)ccc1C(C)C [Compound 33, 4-(3-Fluoro-pyridin-2-yl)-N-(4-isopropyl-3-methyl-phenyl)-benzamide] | < 1 µM |
| CC(C)c1ccc(NC(=O)c2ccc(-c3ncccc3F)cc2)cc1 [Compound 34, 4-(3-Fluoro-pyridin-2-yl)-N-(4-isopropyl-phenyl)-benzamide] | < 1 µM |
| O=C(Nc1ccc(C(F)(F)F)cc1)c1ccc(-c2ncccc2F)cc1 [Compound 35, 4-(3-Fluoro-pyridin-2-yl)-N-(4-trifluoromethyl-phenyl)-benzamide] | < 1 µM |
| O=C(Nc1ccc(C(F)(F)F)cc1)c1ccc(-c2ncccc2[N+](=O)[O-])cc1 [Compound 36, 4-(3-Nitro-pyridin-2-yl)-N-(4-trifluoromethyl-phenyl)-benzamide] | < 1 µM |
| CCCCS(=O)(=O)Nc1cccnc1-c1ccc(C(=O)Nc2ccc(C(C)(C)C)cc2)cc1 [Compound 37, 4-[3-(Butane-1-sulfonylamino)-pyridin-2-yl]-N-(4-eert-butyl-phenyl)-benzamide] | < 1 µM |
| CCC(C)c1ccc(NC(=O)c2cnc(-c3ccccc3Cl)cn2)cc1 (stereo not shown) [Compound 38, 5-(2-Chloro-phenyl)-pyrazine-2-carboxylic acid (4-sec-butyl-phenyl)-amide] | < 1 µM |
| CC(C)(C)c1ccc(NC(=O)c2cnc(-c3ccccc3Cl)cn2)cc1 [Compound 39, 5-(2-Chloro-phenyl)-pyrazine-2-carboxylic acid (4-tert-butyl-phenyl)-amide] | < 1 µM |
| CC(C)(C)c1ccc(NC(=O)c2ccc(-c3ccccc3Cl)cn2)cc1 [Compound 40, 5-(2-Chloro-phenyl)-pyridine-2-carboxylic acid (4-tert-butyl-phenyl)-amide] | < 1 µM |
| Cc1ccc(C)c(-c2ccc(C(=O)Nc3ccc(C(F)(F)F)cc3)cn2)c1 [Compound 56, 6-(2,5-Dimethyl-phenyl)-N-(4-trifluoromethyl-phenyl)-nicotinamide] | < 1 µM |
| CC(=O)c1ccccc1-c1ccc(C(=O)Nc2ccc(C(C)(C)C)cc2)cn1 [Compound 60, 6-(2-Acetyl-phenyl)-N-(4-tert-butyl-phenyl)-nicotinamide] | < 1 µM |
| CC(C)(C)c1ccc(NC(=O)c2ccc(-c3ccccc3N)nc2)cc1 [Compound 61, 6-(2-Amino-phenyl)-N-(4-tert-butyl-phenyl)-nicotinamide] | < 1 µM |
| O=C(Nc1ccccc1C(F)(F)F)c1ccc(-c2ccccc2Cl)nc1 [Compound 64, 6-(2-Chloro-phenyl)-N-(2-trifluoromethyl-phenyl)-nicotinamide] | < 1 µM |
| CCCc1ccc(NC(=O)c2ccc(-c3ccccc3Cl)nc2)cc1 [Compound 77, 6-(2-Chloro-phenyl)-N-(4-propyl-phenyl)-nicotinamide] | < 1 µM |

| SMILES | Ki |
| --- | --- |
| O=C(Nc1ccc(C(F)(F)F)cc1)c1ccc(-c2ccccc2Cl)nc1 [Compound 78, 6-(2-Chloro-phenyl)-N-(4-trifluoromethyl-phenyl)-nicotinamide] | < 1 µM |
| O=C(Nc1ccccc1)c1ccc(-c2ccccc2Cl)nc1 [Compound 81, 6-(2-Chloro-phenyl)-N-phenyl-nicotinamide] | < 1 µM |
| O=C(Nc1cnc2ccccc2c1)c1ccc(-c2ccccc2Cl)nc1 [Compound 82, 6-(2-Chloro-phenyl)-N-quinolin-3-yl-nicotinamide] | < 1 µM |
| Cc1nc2cc(NC(=O)c3ccc(-c4ccccc4F)nc3)ccc2s1 [Compound 85, 6-(2-Fluoro-phenyl)-N-(2-methyl-benzothiazol-5-yl)-nicotinamide] | < 1 µM |
| COc1cccc(NC(=O)c2ccc(-c3ccccc3F)nc2)c1 [Compound 87, 6-(2-Fluoro-phenyl)-N-(3-methoxy-phenyl)-nicotinamide] | < 1 µM |
| O=C(Nc1cccc(C(F)(F)F)c1)c1ccc(-c2ccccc2F)nc1 [Compound 88, 6-(2-Fluoro-phenyl)-N-(3-trifluoromethyl-phenyl)-nicotinamide] | < 1 µM |
| CC(C)c1ccc(NC(=O)c2ccc(-c3ccccc3F)nc2)cc1 [Compound 89, 6-(2-Fluoro-phenyl)-N-(4-isopropyl-phenyl)-nicotinamide] | < 1 µM |
| CCCc1ccc(NC(=O)c2ccc(-c3ccccc3F)nc2)cc1 [Compound 91, 6-(2-Fluoro-phenyl)-N-(4-propyl-phenyl)-nicotinamide] | < 1 µM |
| O=C(Nc1ccc(C(F)(F)F)cc1)c1ccc(-c2ccccc2F)nc1 [Compound 92, 6-(2-Fluoro-phenyl)-N-(4-trifluoromethyl-phenyl)-nicotinamide] | < 1 µM |
| O=C(Nc1ccc2c(c1)CCC2)c1ccc(-c2ccccc2F)nc1 [Compound 93, 6-(2-Fluoro-phenyl)-N-indan-5-yl-nicotinamide] | < 1 µM |
| COc1ccccc1-c1ccc(C(=O)Nc2ccc(C(F)(F)F)cc2)cn1 [Compound 99, 6-(2-Methoxy-phenyl)-N-(4-trifluoromethyl-phenyl)-nicotinamide] | < 1 µM |
| Cc1ccc(-c2ccc(C(=O)Nc3ccc4c(c3)CCC4)cn2)cc1C [Compound 109, 6-(3,4-Dimethyl-phenyl)-N-indan-5-yl-nicotinamide] | < 1 µM |
| Cc1cc(C)cc(-c2ccc(C(=O)Nc3ccc(C)c(F)c3)cn2)c1 [Compound 110, 6-(3,5-Dimethyl-phenyl)-N-(3-fluoro-4-methyl-phenyl)-nicotinamide] | < 1 µM |
| O=C(Nc1ccc2c(c1)CCC2)c1ccc(-c2cccc(Cl)c2)nc1 [Compound 116, 6-(3-Chloro-phenyl)-N-indan-5-yl-nicotinamide] | < 1 µM |
| CCOc1cccc(-c2ccc(C(=O)Nc3ccc4sc(C)nc4c3)cn2)c1 [Compound 119, 6-(3-Ethoxy-phenyl)-N-(2-smethyl-benzothiazol-5-yl)-nicotinamide] | < 1 µM |
| CCOc1cccc(-c2ccc(C(=O)Nc3ccc(C)c(F)c3)cn2)c1 [Compound 120, 6-(3-Ethoxyphenyl)-N-(3-fluoro-4-methyl-phenyl)-nicotinamide] | < 1 µM |
| CCOc1cccc(-c2ccc(C(=O)Nc3ccc4c(c3)CCC4)cn2)c1 [Compound 124, 6-(3-Ethoxy-phenyl)-N-indan-5-yl-nicotinamide] | < 1 µM |
| Cc1nc2cc(NC(=O)c3ccc(-c4cccc(F)c4)nc3)ccc2s1 [Compound 125] | < 1 µM |
